{"source": "patent EP1844783A1", "about": "(priority 2006, dated 2007)", "origin": "cited, not measured here", "tested_on": "EAE", "conditions": "Craner et al., 2005"}
{"molecule": "O=C1NC(=O)C(c2ccccc2)(c2ccccc2)N1", "note": "[phenytoin]", "values": [{"measurement": "ameliorates the inflammatory cell infiltrate in EAE", "value": 75, "unit": "%"}]}
